# Read-outs that look alike come from different tables or passages of the source.
# What was measured:
# in vitro [1] = format: cell-based; settings: human; read-out: HepG2 cytotoxicity IC50
# Procedure: HepG2 human liver cells (ATCC HB 8065) were propagated in DMEM containing either 25 mM glucose or 10 mM galactose plus 10% vol/vol FBS, 1 mM sodium pyruvate, 2 mM Corning glutagro, 100 U/ml penicillin, and 100 μg/ml streptomycin. The cells were seeded in 384-well plates at 1,800 cells per well and incubated in a humidified incubator at 37°C, 5% CO2. Compounds were solubilized in DMSO and assayed using a 10-point threefold serial dilution. Compounds were added 24 h post cell seeding to a final assay concentration of 1% DMSO and highest compound concentration of 100 μM. The cells were incubated for 72 h and viability measured using CellTiter-Glo reagent (Promega) and reading RLU. Growth inhibition curves were fitted using the Levenberg–Marquardt algorithm. The IC50 was defined as the compound concentration that produced 50% of the inhibitory response against HepG2 cells.
# in vitro [2] = settings: human
# M. tuberculosis H37Rv [3] = test: Kill kinetics under replicating conditions; format: cell-based, Mycobacterium tuberculosis
# [4] = test system: intracellular M. tuberculosis in THP-1 cells; test: microbe, parasite or virus in culture; format: cell-based; settings: Mycobacterium tuberculosis
# M. tuberculosis InhA [5] = molecular target: T1, M. tuberculosis InhA (Mycobacterium tuberculosis, UniProt P9WGR1); test: InhA in vitro inhibition assay; format: biochemical
# [6] = mouse plasma
# [7] = human serum
# M. tuberculosis H37Rv [8] = test: microbe, parasite or virus in culture; format: cell-based, Mycobacterium tuberculosis; settings: Mycobacterium tuberculosis, H37RV; whole-cell M. tuberculosis
# M. tuberculosis InhA [9] = molecular target: T1, M. tuberculosis InhA; test: biochemical; format: binding
# [10] = test system: M. tuberculosis Erdman TMCC 107; test: microbe, parasite or virus in culture; format: cell-based; settings: Mycobacterium tuberculosis, read-out: potency (MIC) against M. tuberculosis Erdman TMCC 107
# M. tuberculosis Erdman [11] = format: in vivo, Mycobacterium tuberculosis; settings: for reduction in M. tuberculosis lung burdens / reduction in M. tuberculosis spleen burdens: 9-d treatment; for Mean ± SEM Log10 CFU: dose escalation study (Table S4), day 22
# [12] = for Ratio Plasma AUC0-last / Dose / Ratio Plasma Cmax/Dose: C57Bl/6 mice
# M. tuberculosis Erdman [13] = format: in vivo, Mycobacterium tuberculosis; settings: 100 mg/kg
# in vivo = settings: female; for AUC(0-t): AUClast
# [14] = BALB/c, mouse, po, 10 mg/kg, BALB/c (infected) mice, oral 10 mg/kg QD-3 wk, plasma
# [15] = BALB/c, mouse, po, 50 mg/kg, BALB/c (infected) mice, oral 50 mg/kg QD-3 wk, plasma
# [16] = C57BL/6, mouse, po, 10 mg/kg, C57Bl/6 mice, oral 10 mg/kg QD-4 days, plasma
# [17] = C57BL/6, mouse, po, 10 mg/kg, C57Bl/6 mice, oral 10 mg/kg QD-4 days, lung
# [18] = C57BL/6, mouse, po, 25 mg/kg, C57Bl/6 mice, oral 25 mg/kg QD-4 days, plasma
# [19] = C57BL/6, mouse, po, 25 mg/kg, C57Bl/6 mice, oral 25 mg/kg QD-4 days, lung
# [20] = C57BL/6, mouse, po, 50 mg/kg, C57Bl/6 mice, oral 50 mg/kg QD-4 days, plasma
# [21] = C57BL/6, mouse, po, 50 mg/kg, C57Bl/6 mice, oral 50 mg/kg QD-4 days, lung
# [22] = CD-1, mouse, iv, 5 mg/kg, CD-1 mice, IV 5 mg/kg, single dose, plasma
# [23] = CD-1, mouse, po, 10 mg/kg, CD-1 mice, oral 10 mg/kg, single dose, lung
# [24] = CD-1, mouse, po, 10 mg/kg, CD-1 mice, oral 10 mg/kg, single dose, plasma
# T1 sequence (P9WGR1 whole entry, looked up): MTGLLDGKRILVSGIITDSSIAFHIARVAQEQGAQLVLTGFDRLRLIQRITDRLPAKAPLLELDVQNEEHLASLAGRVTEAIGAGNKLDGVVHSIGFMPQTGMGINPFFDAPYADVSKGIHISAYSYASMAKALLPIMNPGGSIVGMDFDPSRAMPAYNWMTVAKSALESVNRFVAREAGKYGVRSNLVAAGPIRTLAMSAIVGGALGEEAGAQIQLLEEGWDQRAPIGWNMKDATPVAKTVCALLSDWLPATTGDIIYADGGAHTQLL
smiles,measurement,setting,value
CCS(=O)(=O)N1N=Cc2ccc(Oc3ccc(C(F)(F)F)cc3/C=N/O)cc2B1O [AN12855],IC50,in vitro [1],> 100000 nM
same,IC50,in vitro [2],> 50000 nM
same,bactericidal activity,M. tuberculosis H37Rv [3],concentration-dependent bactericidal activity
same,time to reach the limit of detection,"M. tuberculosis H37Rv [3]; replicating conditions, 10× the IC90",7 days
same,IC50,[4],21 ± 3 nM
same,IC90,[4],40 ± 10 nM
same,IC50,M. tuberculosis InhA [5],30 nM
same,protein bound,[6],98.5%
same,protein bound,[7],88%
same,IC90,M. tuberculosis H37Rv [8],90 ± 50 nM
same,Kd,M. tuberculosis InhA [9]; cofactor: None,77 nM
same,N (stoichiometry of binding),M. tuberculosis InhA [9]; cofactor: None,0.58 ± 0.014
same,∆H,M. tuberculosis InhA [9]; cofactor: None,"−17,740 ± 607 cal/mol"
same,∆S,M. tuberculosis InhA [9]; cofactor: None,−27 cal/mol/deg
same,binding to InhA,M. tuberculosis InhA [9]; in the presence of NADH,unable to bind
same,MIC,[10]; with 4% human serum albumin,2.3 µM
same,MIC,[10]; without human serum albumin,0.28 µM
same,reduction in M. tuberculosis lung burdens,M. tuberculosis Erdman [11]; 10 mg/kg,2.3 log10
same,reduction in M. tuberculosis spleen burdens,M. tuberculosis Erdman [11]; 10 mg/kg,2.1 log10
same,reduction in M. tuberculosis lung burdens,M. tuberculosis Erdman [11]; 25 mg/kg,2.7 log10
same,reduction in M. tuberculosis spleen burdens,M. tuberculosis Erdman [11]; 25 mg/kg,3.2 log10
same,reduction in M. tuberculosis lung burdens,M. tuberculosis Erdman [11]; 50 mg/kg,3.7 log10
same,reduction in M. tuberculosis spleen burdens,M. tuberculosis Erdman [11]; 50 mg/kg,3.6 log10
same,Mean ± SEM Log10 CFU,"M. tuberculosis Erdman [11]; lung, 50 mg/kg",5.8 ± 0.05 Log10 CFU
same,Mean ± SEM Log10 CFU,"M. tuberculosis Erdman [11]; lung, 100 mg/kg",5.0 ± 0.13 Log10 CFU
same,Mean ± SEM Log10 CFU,"M. tuberculosis Erdman [11]; lung, 200 mg/kg",5.6 ± 0.06 Log10 CFU
same,Mean ± SEM Log10 CFU,"M. tuberculosis Erdman [11]; organ Lung, 50 mg/kg",2.5 ± 0.24 Log10 CFU
same,Mean ± SEM Log10 CFU,"M. tuberculosis Erdman [11]; organ Lung, 100 mg/kg",2.5 ± 0.05 Log10 CFU
same,Mean ± SEM Log10 CFU,"M. tuberculosis Erdman [11]; organ Lung, 200 mg/kg",3.0 ± 0.10 Log10 CFU
same,Ratio Plasma AUC0-last / Dose,[12]; oral 10 mg/kg QD-4 days,1.8
same,Ratio Plasma Cmax/Dose,[12]; oral 10 mg/kg QD-4 days,0.58
same,Ratio Plasma AUC0-last / Dose,[12]; oral 25 mg/kg QD-4 days,1.9
same,Ratio Plasma Cmax/Dose,[12]; oral 25 mg/kg QD-4 days,0.5
same,Ratio Plasma AUC0-last / Dose,[12]; oral 50 mg/kg QD-4 days,1.6
same,Ratio Plasma Cmax/Dose,[12]; oral 50 mg/kg QD-4 days,0.3
same,total lung exposure lower than plasma AUC,"[12]; CD-1 mice, oral 10 mg/kg",33%
same,reduction in lung burdens,M. tuberculosis Erdman [13]; 2 weeks of treatment,0.47 log10 CFU
same,reduction in lung burdens,M. tuberculosis Erdman [13]; 4 weeks of treatment,0.81 log10 CFU
same,reduction in lung burdens,M. tuberculosis Erdman [13]; 8 weeks of treatment,1.73 log10 CFU
same,reduction in spleens,M. tuberculosis Erdman [13]; 8 weeks of treatment,more than three log10 reductions
same,AUC(0-inf),"in vivo; BALB/c, mouse, po, 10 mg/kg",29000 ng·h/mL
same,half-life,"in vivo; BALB/c, mouse, po, 10 mg/kg",3.04 h
same,AUC(0-t),in vivo; [14],28900 ng·h/mL
same,Cmax,in vivo; [14],8360 ng/mL
same,Tmax,in vivo; [14],0.5 h
same,AUC(0-inf),"in vivo; BALB/c, mouse, po, 50 mg/kg",192000 ng·h/mL
same,half-life,"in vivo; BALB/c, mouse, po, 50 mg/kg",2.4 h
same,AUC(0-t),in vivo; [15],192000 ng·h/mL
same,Cmax,in vivo; [15],61600 ng/mL
same,Tmax,in vivo; [15],0.5 h
same,AUC(0-inf),"in vivo; C57BL/6, mouse, po, 10 mg/kg",19700 ng·h/mL
same,half-life,"in vivo; C57BL/6, mouse, po, 10 mg/kg",2.5 h
same,AUC(0-t),in vivo; [16],17600 ng·h/mL
same,Cmax,in vivo; [17],584 ng/mL
same,Cmax,in vivo; [16],5790 ng/mL
same,Kp,"in vivo; C57BL/6, mouse, po, 10 mg/kg, Ratio (Lung / Plasma) @ 5 hr, C57Bl/6 mice, oral 10 mg/kg QD-4 days",0.39
same,Kp,"in vivo; C57BL/6, mouse, po, 10 mg/kg, Ratio (Lung / Plasma) @ 8 hr, C57Bl/6 mice, oral 10 mg/kg QD-4 days",0.51
same,Tmax,in vivo; [17],5 h
same,Tmax,in vivo; [16],0.5 h
same,AUC(0-inf),"in vivo; C57BL/6, mouse, po, 25 mg/kg",59000 ng·h/mL
same,half-life,"in vivo; C57BL/6, mouse, po, 25 mg/kg",3.52 h
same,AUC(0-t),in vivo; [18],46800 ng·h/mL
same,Cmax,in vivo; [19],1900 ng/mL
same,Cmax,in vivo; [18],12600 ng/mL
same,Kp,"in vivo; C57BL/6, mouse, po, 25 mg/kg, Ratio (Lung / Plasma) @ 5 hr, C57Bl/6 mice, oral 25 mg/kg QD-4 days",0.48
same,Kp,"in vivo; C57BL/6, mouse, po, 25 mg/kg, Ratio (Lung / Plasma) @ 8 hr, C57Bl/6 mice, oral 25 mg/kg QD-4 days",0.49
same,Tmax,in vivo; [19],5 h
same,Tmax,in vivo; [18],0.5 h
same,AUC(0-inf),"in vivo; C57BL/6, mouse, po, 50 mg/kg",109000 ng·h/mL
same,half-life,"in vivo; C57BL/6, mouse, po, 50 mg/kg",3.76 h
same,AUC(0-t),in vivo; [20],82400 ng·h/mL
same,Cmax,in vivo; [21],3500 ng/mL
same,Cmax,in vivo; [20],14900 ng/mL
same,Kp,"in vivo; C57BL/6, mouse, po, 50 mg/kg, Ratio (Lung / Plasma) @ 5 hr, C57Bl/6 mice, oral 50 mg/kg QD-4 days",0.36
same,Kp,"in vivo; C57BL/6, mouse, po, 50 mg/kg, Ratio (Lung / Plasma) @ 8 hr, C57Bl/6 mice, oral 50 mg/kg QD-4 days",0.47
same,Tmax,in vivo; [21],5 h
same,Tmax,in vivo; [20],0.5 h
same,half-life,"in vivo; CD-1, mouse",3.5 h
same,AUC(0-inf),"in vivo; CD-1, mouse, iv, 5 mg/kg",14400 ng·h/mL
same,MRT inf,"in vivo; CD-1, mouse, iv, 5 mg/kg",3.64 h
same,Vd,"in vivo; CD-1, mouse, iv, 5 mg/kg",1.27 L/kg
same,clearance,"in vivo; CD-1, mouse, iv, 5 mg/kg",5.8 mL/min/kg
same,half-life,"in vivo; CD-1, mouse, iv, 5 mg/kg",3.46 h
same,AUC(0-t),in vivo; [22],14300 ng·h/mL
same,Cmax,in vivo; [22],6320 ng/mL
same,AUC(0-inf),"in vivo; CD-1, mouse, po, 10 mg/kg",15500 ng·h/mL
same,bioavailability,"in vivo; CD-1, mouse, po, 10 mg/kg",53%
same,half-life,"in vivo; CD-1, mouse, po, 10 mg/kg",3.27 h
same,AUC(0-t),in vivo; [23],10400 ng·h/mL
same,AUC(0-t),in vivo; [24],15400 ng·h/mL
same,Cmax,in vivo; [23],1020 ng/mL
same,Cmax,in vivo; [24],1740 ng/mL
same,Tmax,in vivo; [23],4 h
same,Tmax,in vivo; [24],0.5 h
